{"source": "patent US20200283742A1", "about": "“METHOD FOR IMPROVING ACTIVITY OF PET-DEGRADING ENZYME BY USING ADDITIVE [As Amended]” (KEIO UNIVERSITY, priority 2017, published 2020)", "key": {"PETase [1]": {"target": "T1, PETase (Piscinibacter sakaiensis, UniProt A0A0K8P6T7)", "T1 construct": "made in house; host or cells: Escherichia coli BL21 Codon Plus (DE3) RIPL", "T1 sequence (A0A0K8P6T7 28-290)": "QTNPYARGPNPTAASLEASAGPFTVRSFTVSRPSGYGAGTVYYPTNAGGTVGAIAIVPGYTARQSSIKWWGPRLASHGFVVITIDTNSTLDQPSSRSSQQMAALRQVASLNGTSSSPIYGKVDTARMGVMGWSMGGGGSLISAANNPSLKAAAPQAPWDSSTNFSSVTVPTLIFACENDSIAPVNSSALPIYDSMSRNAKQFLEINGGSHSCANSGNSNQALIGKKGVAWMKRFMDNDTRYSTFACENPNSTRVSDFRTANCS", "experiment": "PET-hydrolyzing activity of PETase on PET film in presence of surfactant (amount of degradation product MHET by HPLC)", "format": "biochemical, Ideonella sp. No. 201-F6 strain", "conditions": "for Relative activity: 0.01% SDS vs control; for PET-hydrolyzing activity compared with control (FIG. 2): surfactant 0.01% (w/v), pre-incubation 30° C. 1 hour, reaction 3 hours", "procedure": "In addition to the optimal conditions, a surfactant was added in a concentration of 0.001 to 0.01 (w/v) %, and the activity was then measured. As surfactants, six types of surfactants, namely. [A] Sodium Cholate (SC), [B] 3-[(3-Cholamidopropyl)dimethylammonio]propanesulfonate (CHAPS), [C] Sodium dodecyl sulfate (SDS), [D] Octylphenol ethoxylate (Triton X-114), [E] Polysorbate 80 (Tween 80), [F] and Dodecyltrimethylammoniumu chloride (DTMA-Cl), were used (FIG. 1). The surfactant, a buffer and a film were added to the reaction system, and the obtained mixture was then pre-incubated at 30° C. for 1 hour. Thereafter, the concentration of the enzyme was set at 50 nM, the film area was set at 3.39 cm^2/mL, and the reaction was carried out for 3 hours.\nA system, to which no surfactants were added, was used as a control.\nThe film area was changed, and the enzyme concentration was set at 50 nM or 500 nM, and thereafter, the activity was measured under the optimal conditions and in the presence of 0.01(v/v) % SDS. Moreover, a comparison was made regarding the case of setting the enzyme concentration at 50 nM and the amount of the degradation product (monohydroxyethyl terephthalate (MHET)) depending on the reaction time.\nThe amount of the degradation product was measured by reverse phase high performance liquid chromatography (HPLC) in accordance with the method described in International Publication WO 2015/025861.\nThe pre-incubation time after addition of SDS was set at 0 or 1 hour, the reaction time was set at 1 hour, the enzyme concentration was set at […], and the film area was set at 3.39 cm^2/mL. Thereafter, a comparison was made in terms of the activity under the optimal conditions.\nThe enzyme concentration was set at 500 nM, the SDS concentration and the film area were changed, and the activity under the optimal conditions was then measured."}, "PETase [2]": {"target": "T1, PETase", "experiment": "pNPB (p-nitrophenyl-butyrate)-hydrolyzing activity", "format": "biochemical, Ideonella sp. No. 201-F6 strain", "conditions": "0.01 (w/v) % SDS; enzyme 250 nM; substrate pNPB", "procedure": "In the following examples, the activity of PETase (PET-hydrolyzing activity) was measured using, as indicators, the amount of a degradation product and pNPB (p-nitrophenyl-butyrate)-hydrolyzing activity. Hereafter, a method of measuring pNPB (p-nitrophenyl-butyrate)-hydrolyzing activity is described.\npNPB used as an artificial substrate in the measurement of esterase activity is hydrolyzed into 1-butanoic acid and p-nitrophenol (pNP).\nThe pNPB-hydrolyzing activity immediately after purification of the enzyme was measured. The composition of a reaction solution is shown in Table 1. pNPB was dissolved in dimethyl sulfoxide (DMSO). The enzyme was mixed with a buffer, and the obtained mixture was then incubated at 30° C. for 30 minutes. Thereafter, the substrate was added to the reaction mixture, and a change in the absorbance at 425 nm for 1 minute was measured three times. The inclination (ΔAbs) of the measured absorbance change was applied to the following equation to obtain catalyst turnover frequency.\nTOF: Catalyst turnover frequency; ε: Molar absorption coefficient; c: Enzyme concentration; 1: Thickness of solution layer; Δt: Reaction time.\nThe p-nitrophenyl-butyrate(pNPB)-hydrolyzing activity was measured in the presence of 0.01 (w/v) % SDS, in addition to the conditions shown in Table 1."}, "PETase [3]": {"target": "T1, PETase", "experiment": "Amount of enzyme adsorbed on PET film (SDS-PAGE)", "parameters": "species or system Ideonella sp. No. 201-F6 strain", "conditions": "SDS 0.01 to 0.04 (w/v) %; enzyme 500 nM; pre-incubation 1 hour; reaction 3 hours; film area 1.13 cm^2/mL", "procedure": "The amount of the enzyme adsorbed on the film was observed under conditions in which the activity was changed by addition of a surfactant. SDS was added to the reaction system to result in a concentration of 0.01 (w/v) % to 0.04 (w/v) %, in addition to conditions of an enzyme concentration of 500 nM, a pre-incubation time of 1 hour, a reaction time of 3 hours, and a film area of 1.13 cm^2/mL. After completion of the reaction, the film was removed using tweezers, and was then rinsed with distilled water. The film was placed on the lid of a 1.5-mL tube, and thereafter, 10 μL of an SDS-PAGE sample buffer was added thereto. After that, the resultant was left at rest for 10 minutes, and was then centrifuged. The thus centrifuged solution was subjected to SDS-PAGE. Moreover, in addition to the conditions without addition of surfactants, a comparison was made with conditions including addition of DTMA-Cl that was a cationic surfactant."}, "[4]": {"conditions": "enzyme 50 nM, film area 1.13 cm^2/mL"}, "[5]": {"conditions": "enzyme 50 nM, film area 2.26 cm^2/mL"}, "[6]": {"conditions": "enzyme 50 nM, film area 3.39 cm^2/mL"}, "[7]": {"conditions": "enzyme 50 nM, film area 5.65 cm^2/mL"}, "[8]": {"conditions": "enzyme 50 nM, film area 9.04 cm^2/mL"}, "[9]": {"conditions": "enzyme 50 nM, film area 11.3 cm^2/mL"}, "[10]": {"conditions": "enzyme 500 nM, film area 1.13 cm^2/mL"}, "[11]": {"conditions": "enzyme 500 nM, film area 2.26 cm^2/mL"}, "[12]": {"conditions": "enzyme 500 nM, film area 3.39 cm^2/mL"}, "[13]": {"conditions": "enzyme 500 nM, film area 5.65 cm^2/mL"}, "[14]": {"conditions": "enzyme 500 nM, film area 9.04 cm^2/mL"}, "[15]": {"conditions": "enzyme 500 nM, film area 11.3 cm^2/mL"}}}
{"molecule": "CCCCCCCCCCCCOS(=O)(=O)[O-].[Na+]", "note": "[SDS, Sodium dodecyl sulfate]", "values": [{"measurement": "Relative activity", "setting": "PETase [1]; [4]", "result": 2.47, "unit": "fold"}, {"measurement": "Relative activity", "setting": "PETase [1]; [5]", "result": 1.99, "unit": "fold"}, {"measurement": "Relative activity", "setting": "PETase [1]; [6]", "result": 1.86, "unit": "fold"}, {"measurement": "Relative activity", "setting": "PETase [1]; [7]", "result": 1.75, "unit": "fold"}, {"measurement": "Relative activity", "setting": "PETase [1]; [8]", "result": 1.99, "unit": "fold"}, {"measurement": "Relative activity", "setting": "PETase [1]; [9]", "result": 1.72, "unit": "fold"}, {"measurement": "Relative activity", "setting": "PETase [1]; [10]", "result": 2170, "unit": "fold"}, {"measurement": "Relative activity", "setting": "PETase [1]; [11]", "result": 50.6, "unit": "fold"}, {"measurement": "Relative activity", "setting": "PETase [1]; [12]", "result": 6.01, "unit": "fold"}, {"measurement": "Relative activity", "setting": "PETase [1]; [13]", "result": 3.58, "unit": "fold"}, {"measurement": "Relative activity", "setting": "PETase [1]; [14]", "result": 3.32, "unit": "fold"}, {"measurement": "Relative activity", "setting": "PETase [1]; [15]", "result": 3.11, "unit": "fold"}, {"measurement": "Activity relative to control", "setting": "PETase [1]; addition of SDS, enzyme 50 nM, film area 1.13 cm^2/mL", "result": "approximately 2.5 times"}, {"measurement": "Activity relative to control", "setting": "PETase [1]; addition of SDS, enzyme 50 nM, film area 11.3 cm^2/mL", "result": "approximately 1.7 times"}, {"measurement": "PET-hydrolyzing activity versus control", "setting": "PETase [1]; addition of SDS, enzyme 500 nM", "result": "the activity was exhibited, although almost no activity was exhibited in the case of the control"}, {"measurement": "Activity upon addition of 0.01% SDS", "setting": "PETase [1]; [4]", "result": 793, "unit": "h⁻¹"}, {"measurement": "Activity upon addition of 0.01% SDS", "setting": "PETase [1]; [5]", "result": 901, "unit": "h⁻¹"}, {"measurement": "Activity upon addition of 0.01% SDS", "setting": "PETase [1]; [6]", "result": 1020, "unit": "h⁻¹"}, {"measurement": "Activity upon addition of 0.01% SDS", "setting": "PETase [1]; [7]", "result": 1270, "unit": "h⁻¹"}, {"measurement": "Activity upon addition of 0.01% SDS", "setting": "PETase [1]; [8]", "result": 1680, "unit": "h⁻¹"}, {"measurement": "Activity upon addition of 0.01% SDS", "setting": "PETase [1]; [9]", "result": 1910, "unit": "h⁻¹"}, {"measurement": "Activity upon addition of 0.01% SDS", "setting": "PETase [1]; [10]", "result": 154, "unit": "h⁻¹"}, {"measurement": "Activity upon addition of 0.01% SDS", "setting": "PETase [1]; [11]", "result": 260, "unit": "h⁻¹"}, {"measurement": "Activity upon addition of 0.01% SDS", "setting": "PETase [1]; [12]", "result": 297, "unit": "h⁻¹"}, {"measurement": "Activity upon addition of 0.01% SDS", "setting": "PETase [1]; [13]", "result": 451, "unit": "h⁻¹"}, {"measurement": "Activity upon addition of 0.01% SDS", "setting": "PETase [1]; [14]", "result": 660, "unit": "h⁻¹"}, {"measurement": "Activity upon addition of 0.01% SDS", "setting": "PETase [1]; [15]", "result": 743, "unit": "h⁻¹"}, {"measurement": "Optimal SDS concentration (FIG. 6)", "setting": "PETase [1]; enzyme 500 nM, film area of up to 5.65 cm^2/mL", "result": "0.02 (w/v) %"}, {"measurement": "Optimal SDS concentration (FIG. 6)", "setting": "PETase [1]; enzyme 500 nM, film area of up to 11.3 cm^2/mL", "result": "0.03 (w/v) %"}, {"measurement": "Change over time in amount of PET degradation product / enzyme stability (FIG. 3)", "setting": "PETase [1]; in presence of SDS, enzyme 50 nM, reaction of 3 hours", "result": "almost no activity decrease took place"}, {"measurement": "Amount of degradation product depending on pre-incubation time (FIG. 5)", "setting": "PETase [1]; pre-incubation after SDS addition 0 or 1 hour, reaction 1 hour, enzyme 50 nM, film area 3.39 cm^2/mL", "result": "the amount of a degradation product was changed depending on the pre-incubation time"}, {"measurement": "PET-hydrolyzing activity compared with control (FIG. 2)", "setting": "PETase [1]; [6]", "result": "approximately two times greater than the activity of the control"}, {"measurement": "Reduction of pNPB-hydrolyzing activity after addition of SDS (FIG. 4)", "setting": "PETase [2]", "result": "approximately 5%"}, {"measurement": "Amount of enzyme (protein) adsorbed on film (FIG. 7)", "setting": "PETase [3]", "result": "adsorption of a large amount of protein was confirmed"}]}
{"molecule": "Polysorbate 80 [Tween 80]", "values": [{"measurement": "PET-hydrolyzing activity compared with control (FIG. 2)", "setting": "PETase [1]; [6]", "result": "the activity was found with the surfactants other than Tween 80 and DTMA-Cl"}]}
{"molecule": "CCCCCCCCCCCC[N+](C)(C)C.[Cl-]", "note": "[DTMA-Cl, Dodecyltrimethylammoniumu chloride]", "values": [{"measurement": "PET-hydrolyzing activity compared with control (FIG. 2)", "setting": "PETase [1]; [6]", "result": "the activity was significantly decreased"}]}
